Here are results for eleven molecules from ChEMBL document CHEMBL1201862, “PubChem BioAssay data set” (2004).

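These data come from cells grown in 96-well plates and exposed to compound for 48 hours at five concentrations. At the GI50, growth is halved.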 Calls of active or inactive are those of the source. No stated cut-off is given here; in the data, active = GI50 up to about 1.1 µM and inactive = higher.

Test systems include OVCAR-8; K562; RXF 393; CAKI-1; SK-MEL-5; UO-31; T47D; PC-3; COLO 205; MDA-MB-435; IGROV-1; MDA-MB-231; SR; SK-MEL-2; 786-0; HT-29; RPMI-8226; LOX IMVI; SK-MEL-28.
Assay in all cases: NCI-60 cell line screen, 48 h

With `O=C1Oc2ccccc2N/C1=C/C(=O)c1ccc(Cl)cc1`, the GI50 in the assay with OVCAR-8 was 42.5 µM (inactive); in the assay with K562, 37.1 µM (inactive); in the assay on RXF 393, > 100 µM (inactive); in the assay on CAKI-1, > 100 µM (inactive); in the assay on SK-MEL-5, 38.6 µM (inactive); with UO-31, 73.5 µM (inactive). The GI50 in the assay with T47D is 47.5 µM (inactive); in the assay on PC-3 it was 28.1 µM (inactive); in the assay with COLO 205 it was > 100 µM (inactive); in the assay with MDA-MB-435, 61.4 µM (inactive); with IGROV-1, > 100 µM (inactive); with MDA-MB-231, > 100 µM (inactive). The GI50 with SR was 39.4 µM (inactive); in the assay on SK-MEL-2, > 100 µM (inactive); with 786-0 it was > 100 µM (inactive); with HT-29 it was > 100 µM (inactive).
Take `COc1ccc(C2C3CCc4ccccc4C3=NN2S(=O)(=O)c2ccc(Cl)cc2)cc1` (stereo not drawn): the GI50 in the assay on RPMI-8226 is 14 µM (inactive); with OVCAR-8, 41.6 µM (inactive); in the assay on K562 it was 4.98 µM (inactive); in the assay on RXF 393, 12.1 µM (inactive); in the assay on CAKI-1, 16.2 µM (inactive); in the assay on SK-MEL-5, 16 µM (inactive). Besides, the GI50 was 22.6 µM (inactive) in the assay on UO-31; 10.7 µM (inactive) with T47D; 17.1 µM (inactive) in the assay with PC-3; 6.01 µM (inactive) in the assay with COLO 205; 22.8 µM (inactive) in the assay on LOX IMVI; 2.07 µM (inactive) with MDA-MB-435. Further, the GI50 is 2.61 µM (inactive) in the assay with IGROV-1; 17.1 µM (inactive) in the assay with MDA-MB-231; 3.01 µM (inactive) with SR; 28.4 µM (inactive) in the assay on SK-MEL-2; 6.93 µM (inactive) in the assay on 786-0; 18.1 µM (inactive) in the assay with HT-29.
Consider `Cn1c(-c2ccccc2)cc(-c2cccs2)c1-c1ccsc1`, for which the GI50 in the assay with RPMI-8226 is 64.1 µM (inactive); in the assay on OVCAR-8 it was > 100 µM (inactive); in the assay on K562 it was > 100 µM (inactive); in the assay on RXF 393 it was > 100 µM (inactive); in the assay with CAKI-1 it was > 100 µM (inactive); in the assay on SK-MEL-5 it was > 100 µM (inactive). The GI50 in the assay on UO-31, with T47D, with PC-3, with COLO 205, in the assay on LOX IMVI and in the assay on MDA-MB-435 was > 100 µM (inactive) each time. Moreover, the GI50 in the assay on IGROV-1, in the assay with MDA-MB-231, with SR, in the assay with SK-MEL-2, with 786-0 and in the assay on HT-29 was > 100 µM (inactive) in each case.
`COC1(OC)C2C=CC1C([C@](C)(N)CO)C2` (stereo partly drawn): the GI50 in the assay with OVCAR-8, in the assay on K562, with RXF 393, in the assay with CAKI-1, in the assay on SK-MEL-28 and with SK-MEL-5 was > 100 µM (inactive) throughout. The GI50 in the assay on UO-31, with T47D, in the assay with PC-3, with COLO 205, with MDA-MB-435 and in the assay with IGROV-1 was > 100 µM (inactive) each time. Further, the GI50 in the assay with MDA-MB-231, in the assay on SR, in the assay on 786-0 and with HT-29 was > 100 µM (inactive) throughout.
With `Cc1ccc(C(=O)N/N=C(\N=N\c2cccc(C)c2)c2ccc(N(CCC#N)CCC#N)cc2C)cc1`, the GI50 in the assay with RPMI-8226 was 49.9 µM (inactive); with OVCAR-8, 43.3 µM (inactive); with K562, > 100 µM (inactive); in the assay on RXF 393 it was 89.1 µM (inactive); in the assay with CAKI-1 it was > 100 µM (inactive); in the assay with SK-MEL-28, 13.1 µM (inactive). For the same molecule, the GI50 in the assay on SK-MEL-5 is 32.2 µM (inactive); with UO-31, > 100 µM (inactive); in the assay on T47D, 44 µM (inactive); with PC-3, 58.3 µM (inactive); with COLO 205, > 100 µM (inactive); in the assay with LOX IMVI, 88.9 µM (inactive). Moreover, the GI50 in the assay with MDA-MB-435 was 26.4 µM (inactive); in the assay on IGROV-1, 34.3 µM (inactive); in the assay with MDA-MB-231, > 100 µM (inactive); in the assay on SR, 55.1 µM (inactive); with SK-MEL-2, 49.3 µM (inactive); with HT-29, 34.4 µM (inactive).
On to `CNc1ccc2nc(-c3ccc(OC(=O)N(C)C)cc3)cn2c1`, for which the GI50 is 15.7 µM (inactive) in the assay with OVCAR-8; 21 µM (inactive) in the assay with K562; 13.3 µM (inactive) in the assay on RXF 393; 21.4 µM (inactive) in the assay with CAKI-1; 45.8 µM (inactive) in the assay with SK-MEL-28; 23.1 µM (inactive) with SK-MEL-5. The GI50 in the assay with UO-31 is 21.1 µM (inactive); with T47D, 22.2 µM (inactive); with PC-3, 16 µM (inactive); in the assay on COLO 205 it was 17.1 µM (inactive); in the assay with LOX IMVI, 17.7 µM (inactive); in the assay on MDA-MB-435, 17 µM (inactive). The GI50 with IGROV-1 is 17.9 µM (inactive); in the assay with MDA-MB-231, 17.1 µM (inactive); in the assay on SR, 19.1 µM (inactive); with SK-MEL-2 it was 14 µM (inactive); with 786-0 it was 14.5 µM (inactive); in the assay with HT-29, 17.7 µM (inactive).
`O=C1c2ccccc2C(=O)c2nn(N=P(CP(=Nn3nc4c(n3)C(=O)c3ccccc3C4=O)(c3ccccc3)c3ccccc3)(c3ccccc3)c3ccccc3)nc21`: the GI50 in the assay on RPMI-8226, with OVCAR-8, with K562, with RXF 393, with CAKI-1 and with SK-MEL-28 was > 100 µM (inactive) throughout. Also, the GI50 in the assay with SK-MEL-5, in the assay on T47D, in the assay with PC-3, with COLO 205, in the assay with LOX IMVI and in the assay with MDA-MB-435 was > 100 µM (inactive) each time. For the same molecule, the GI50 in the assay on IGROV-1, in the assay with MDA-MB-231, in the assay with SR, in the assay on SK-MEL-2, with 786-0 and in the assay with HT-29 was > 100 µM (inactive) in each case.
Regarding `O=C1c2ccccc2-c2nc(/C=C/c3ccccc3)cc3c2c1nc1ccccc13`, the GI50 in the assay on RPMI-8226 was 15.1 µM (inactive); in the assay with OVCAR-8, 24.3 µM (inactive); in the assay on K562, 3.47 µM (inactive); in the assay on RXF 393, 29.2 µM (inactive); in the assay with CAKI-1 it was 26 µM (inactive); with SK-MEL-28, 23.1 µM (inactive). For the same molecule, the GI50 with SK-MEL-5 is 2.32 µM (inactive); with UO-31 it was 29.6 µM (inactive); with T47D, 48.8 µM (inactive); in the assay on PC-3, 4.56 µM (inactive); with COLO 205, 20.5 µM (inactive); in the assay with MDA-MB-435 it was 13.9 µM (inactive). For the same molecule, the GI50 in the assay on IGROV-1 was 20.4 µM (inactive); in the assay with MDA-MB-231 it was 24.4 µM (inactive); in the assay on SR, 1.8 µM (inactive); with SK-MEL-2 it was 21.6 µM (inactive); in the assay with 786-0 it was 30.5 µM (inactive); with HT-29, 30.8 µM (inactive).
In the case of `O=NN1CCNC1Cc1ccccc1` (stereo not drawn), the GI50 in the assay on RPMI-8226 is 70 µM (inactive); in the assay on OVCAR-8 it was > 100 µM (inactive); in the assay with K562 it was > 100 µM (inactive); with RXF 393, 88.7 µM (inactive); in the assay with SK-MEL-28, > 100 µM (inactive); with SK-MEL-5 it was 72.6 µM (inactive). For the same molecule, the GI50 is 43.7 µM (inactive) in the assay on UO-31; 47.1 µM (inactive) in the assay on T47D; > 100 µM (inactive) with PC-3; > 100 µM (inactive) in the assay with COLO 205; > 100 µM (inactive) in the assay on LOX IMVI; > 100 µM (inactive) with MDA-MB-435. In addition, the GI50 in the assay with IGROV-1 was > 100 µM (inactive); with MDA-MB-231, > 100 µM (inactive); in the assay with SR it was 23.8 µM (inactive); in the assay on 786-0, 52.8 µM (inactive); in the assay with HT-29 it was > 100 µM (inactive).
Take `NC(=O)c1c(NC=O)ncn1C1OCC(O)C(O)C1O` (stereo not drawn): the GI50 in the assay on RPMI-8226, with OVCAR-8, with K562, in the assay with RXF 393, with CAKI-1 and with SK-MEL-5 was > 100 µM (inactive) in each case. Moreover, the GI50 with UO-31, in the assay on T47D, in the assay with PC-3, in the assay on COLO 205, with LOX IMVI and with MDA-MB-435 was > 100 µM (inactive) each time. Besides, the GI50 in the assay on IGROV-1, in the assay on MDA-MB-231, with SR, in the assay on SK-MEL-2, in the assay with 786-0 and in the assay with HT-29 was > 100 µM (inactive) each time.
In the case of `COc1ccc2oc(S(=O)(=O)N3CC(CCl)c4ccc(N)cc43)cc2c1` (stereo not drawn), the GI50 in the assay on RPMI-8226 is 0.0482 µM (active); in the assay on OVCAR-8, 0.152 µM (active); with K562, 0.0225 µM (active); in the assay on CAKI-1, 0.0366 µM (active); in the assay with SK-MEL-28, 54.1 µM (inactive); in the assay with SK-MEL-5, 0.019 µM (active). For the same molecule, the GI50 with UO-31 is 1.93 µM (inactive); with T47D, > 100 µM (inactive); in the assay with PC-3 it was 0.0299 µM (active); in the assay with COLO 205 it was 2.11 µM (inactive); in the assay on LOX IMVI it was 0.0471 µM (active); in the assay with MDA-MB-435, 0.0113 µM (active). Further, the GI50 with IGROV-1 was 0.0445 µM (active); in the assay with MDA-MB-231, 2.01 µM (inactive); with SR it was < 0.01 µM (active); in the assay on SK-MEL-2, < 0.0443 µM (active); in the assay on 786-0, 0.0264 µM (active); in the assay on HT-29, 2.25 µM (inactive).
